Measurements: PMC9046208, “Foldamers reveal and validate therapeutic targets associated with toxic α-synuclein self-assembly” (Nature Communications, 2022)

Key:
[1] = system: NL5901; experiment: αS-YFP inclusion count in C elegans NL5901; assay type: in vivo; conditions: NL5901, 15 μM SK-129, day 8 of adulthood; untreated ~33
Procedure: The assay was carried out based on a previous protocol[57] with slight modifications. On day one, N2 and NL5901 strains were synchronized through the bleaching process involving egglay and the incubation of the eggs at an ambient temperature (~23 °C) on a solution of 3 mL NGM media in 60 mm culture plates (CytoOne, USA Scientific, Ocala, FL). The plates were seeded with 300 µL OP50 at an O.D. of 0.5 for 30 h. Simultaneously, a solution of 15 µM SK-129 (Stock solution concentration = 10 mM in DMSO) was made in M9 buffer and added to two sterilized 35 mm NGM solid media plates (Fisher Scientific, Pittsburgh, PA). The plates were already containing 2 mL of NGM solid media and 75 µM Fluorodeoxyuridine (FUDR) to prevent offspring in the worms. […] On day five, motility assay was conducted for worms under different conditions in duplicate using a WMicroTracker Arena plate reader (Phylumtech, Argentina) at ~23 °C for 1 h per day over a period of 12 days. […]
The worms from the NL5901 strain were treated in the absence and presence of SK-129 (15 µM SK-129, stock solution concentration = 10 mM in DMSO) as described in the paralysis experiment. […] For each experiment, at least 15 worms were used, and the inclusions were counted manually, and each condition consisted of at least four independent experiments.

[2] = target: Aβ42 (Homo sapiens, UniProt P05067); experiment: Fluorescence polarization titration, SK-129F with Aβ42; assay type: binding; conditions: FP, higher Kd for Aβ42
Procedure: All Fluorescence Polarization (FP) experiments were conducted on a Varian Cary Eclipse fluorometer (Agilent, Santa Clara, CA) equipped with a polarizer. The stock solutions of αS, 1 mM or 100 μM in 1x PBS buffer, were serially added into a solution of 10 μM SK-129F (300 μL in 1x PBS buffer) while stirring in a quartz cuvette (Fireflysci, Staten Island, NY). All FP measurements were conducted in triplicates in 20 mM Tris, 100 mM NaCl, pH 7.2 at 20 °C. The excitation and emissions wavelengths were set at 490 nm and 520 nm, respectively. Each titration was equilibrated for five min before measurements were taken for the next addition of αS solution. The addition of αS solution was continuous until no more change in the FP signal was observed. Similar conditions were used for the titration of various αS mutants and Aβ42 peptide against SK-129F. A stock solution of Aβ42 (1 mM or 100 μM in 1x PBS buffer on ice) was sequentially added to a solution of 10 μM SK-129F (300 μL in 1x PBS buffer) until no more change in the FP signal was observed. The polarization of each point was calculated using Eq. 1:1 FP=I∥−I⊥/I∥+I⊥ Where I∥ is fluorescence intensity parallel to the excitation plane and I⊥ is fluorescence intensity perpendicular to the excitation plane. […]

[3] = target: T1, αS aggregation (Homo sapiens, UniProt P37840); experiment: SDS-PAGE analysis of soluble and insoluble αS fractions; assay type: biochemical; conditions: 100 µM αS, equimolar SK-129, four days
T1 construct: made in house; host or cells: Escherichia coli BL21(DE3), periplasm
Procedure: The solution of αS (100 µM) in the absence and presence of SK-129 were prepared in the aggregation buffer (20 mM NaCl, 20 mM NaPi, pH 6.5) and kept at 37 °C and constant shaking at 1200 rpm until the aggregation of αS plateaued (four days). The solutions were separated into soluble and insoluble fractions of αS by centrifugation at 22,000 × g for 20 min. Afterwards, 2 x Laemmli protein sample loading buffer (Biorad, Hercules, CA) was added to the fractions and boiled at 95 °C for 5 min and ran on a 12% Mini-PROTEAN precast protein gel (Biorad, Hercules, CA). In addition, we also quantified SDS-PAGE gel band intensities using ImageJ software. The gel-based experiments were repeated three times (n = 3) independently to ensure the reproducibility of the data. All the uncropped gels (from Main manuscript and Supplementary Figures) have been included in the Supplementary Data File as Supplementary Fig. 29.

Chain of Aβ42 (P05067 672-713 limits assumed, species assumed): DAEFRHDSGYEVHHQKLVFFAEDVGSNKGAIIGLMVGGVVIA

Kd for Aβ42 relative to αS [2]: more than 15 fold
Compound: COC(=O)c1cc(OCC(=O)O)c2cccc(NC(=O)c3cc(OC(C)C)c4cccc(NC(=O)c5cc(OCC(=O)O)c6cccc(NC(=O)c7cc(OC(C)C)c8cccc([N+](=O)[O-])c8n7)c6n5)c4n3)c2n1 [SK-129]
number of αS-YFP inclusions [1]: 8–9 inclusions/C elegans | αS fraction detected by SDS-PAGE [3]: predominantly detected in the soluble fraction
